± gives the expanded uncertainty stated by the source.
Columns and labels:
[1] = Liquid; for mass density: 298.15 K, 101.33 kPa; for vapor or sublimation pressure: Ebulliometric method (Recirculating still)
[2] = refractive index (Na D-line) (dimensionless); conditions: 293.15 K; 101.33 kPa; Liquid; Standard Abbe refractometry

SMILES	mass density [1] [kg/m3]	vapor or sublimation pressure ([1]; 318.13 K) [kPa]	vapor or sublimation pressure ([1]; 328.2 K) [kPa]	vapor or sublimation pressure ([1]; 338.28 K) [kPa]	vapor or sublimation pressure ([1]; 328.15 K) [kPa]	vapor or sublimation pressure ([1]; 338.15 K) [kPa]	refractive index [2]
CC(C)(C)O [2-methylpropan-2-ol]	780.44 ± 0.64	17.95 ± 0.12	30.35 ± 0.17	48.93 ± 0.24	–	–	–
CC(C)CC(C)(C)C [2,2,4-trimethylpentane]	687.8 ± 1.3	15.85 ± 0.11	–	–	23.68 ± 0.14	34.4 ± 0.19	1.38894 ± 0.00045
CCC(C)(C)OC [2-methoxy-2-methylbutane]	765.85 ± 0.66	23.96 ± 0.14	35.45 ± 0.19	51.05 ± 0.25	35.45 ± 0.19	51.05 ± 0.25	1.38614 ± 0.00041

— the NIST ThermoML archive (doi:10.1021/je901026b)
